# Data published in patent US12728118B2, “Methods and compositions for the treatment of corneal endothelium disorders” (The Schepens Eye Research Institute, Inc., priority 2020, dated 2026).
# Entries after “also recorded” stand apart in the source; their conditions may differ.
# Key:
# HCEnC-21T cells = assay: LA-qPCR DNA lesion analysis in HCEnC-21T cells treated with 4-OHE2; format: cell-based, human; conditions: 15 μM 4-OHE2; 24 h
# Experimental: (§1) Human Corneal Endothelial Cell Culture. Telomerase and SV40 T antigen immortalized normal human CE cell lines HCEnC-21T and HCEnC-SV-67F-16, respectively, were previously generated in our laboratory (26, 62). HCEnC-21T cells were seeded in estrogen-free medium (phenol red-free OptiMEM-I; Thermo Fisher Scientific) with charcoal stripped FBS (HyClone), 200 mg/L calcium chloride (Sigma-Aldrich), 0.08% chondroitin sulfate (Sigma-Aldrich) and treated with 15 μM 4-OHE2 (Steraloids) in phenol red-free OptiMEM-I. UVA Irradiation of Mouse Cornea. A UVA LED light source (M365LP1; Thorlabs) with an emission peak of 365 nm light, 9 nm bandwidth (FWHM) and irradiance of 398 mW/cm 2 was focused to illuminate a 4-mm-diameter spot onto the mouse cornea. The energy was measured using a laser sensor (model L49 [150A]; Ophir), and the time of UVA exposure was adjusted to deliver the appropriate fluence (10 min 29 s for 250 J/cm^2, 20 min 57 s for 500 J/cm^2, 31 min 26 s for 750 J/cm^2, and 41 min 54 s for 1,000 J/cm^2). The right eye (OD) was irradiated while the contralateral eye (OS) was covered with heat retention drapes (SpaceDrapes, Inc.) to serve as untreated control. […]
# (§2) DNA Damage Analysis Using LA-qPCR. […] DNA lesion frequencies were calculated as described (24). […]
# [1] = system: mouse corneal endothelial cell (MCEnC); assay: UVA-induced FECD mouse model: corneal endothelial cell density (in vivo confocal HRT / ZO-1 immunostaining); conditions: for increase in MCEnC density vs 1,000 J/cm^2 UVA irradiation only / MCEnC density: 2 mo, 1,000 J/cm^2 UVA; for increase in MCEnC density vs 1,000 J/cm^2 UVA irradiation only: NAC in drinking water 1 g/kg from 1 d prior
# Experimental: (§3) Experimental Animals. C57BL/6 wild-type mice (male and female, 7 to 15 wk old; The Jackson Laboratory or Charles River) were used for this study. Mice were housed in a climate-controlled animal facility at the Schepens Eye Research Institute (Boston) and kept under cyclic light conditions with 12 h ON or OFF. Mice were anesthetized with a combined dose of ketamine (100 mg/kg) and xylazine (20 mg/kg) administered intraperitoneally. Female mice were irradiated at proestrus stage (61). For the NAC-treated group, mice were fed daily with drinking water containing 1 g of NAC/kg body weight from 1 d prior up to 3 mo post-UVA. All animal experiments were approved by the Institutional Animal Care and Use Committee and adhered to the ARVO Statement for the Use of Animals in Ophthalmic and Vision Research.
# Human Corneal Endothelial Cell Culture. Telomerase and SV40 T antigen immortalized normal human CE cell lines HCEnC-21T and HCEnC-SV-67F-16, respectively, were previously generated in our laboratory (26, 62). HCEnC-21T cells were seeded in estrogen-free medium (phenol red-free OptiMEM-I; Thermo Fisher Scientific) with charcoal stripped FBS (HyClone), 200 mg/L calcium chloride (Sigma-Aldrich), 0.08% chondroitin sulfate (Sigma-Aldrich) and treated with 15 μM 4-OHE2 (Steraloids) in phenol red-free OptiMEM-I. UVA Irradiation of Mouse Cornea. A UVA LED light source (M365LP1; Thorlabs) with an emission peak of 365 nm light, 9 nm bandwidth (FWHM) and irradiance of 398 mW/cm 2 was focused to illuminate a 4-mm-diameter spot onto the mouse cornea. The energy was measured using a laser sensor (model L49 [150A]; Ophir), and the time of UVA exposure was adjusted to deliver the appropriate fluence (10 min 29 s for 250 J/cm^2, 20 min 57 s for 500 J/cm^2, 31 min 26 s for 750 J/cm^2, and 41 min 54 s for 1,000 J/cm^2). The right eye (OD) was irradiated while the contralateral eye (OS) was covered with heat retention drapes (SpaceDrapes, Inc.) to serve as untreated control. Mouse eyeballs from CYP1B1-null mice (age 8 to 12 wk, 10 females and 10 males) (31) were enucleated, rinsed with phosphate-buffered saline (PBS), and transported on ice, and cornea excision was performed within 24 h of the animal's death. Four 12-inch RPR-3500A UVA tubes (The Southern New England UV Co.) emitting 350 nm light (irradiance: 7.13 mW/cm 2) were used to irradiate the corneoscleral buttons placed in sterile PBS, with the endothelial side facing the source. The fluence delivered was 25 J/cm^2 (58 min 24 s at a distance of 10 cm). Irradiated corneas were snap-frozen, homogenized using a tissue grinder, and dissolved in methanol:water (2:1) for estrogen metabolite analysis.
# The mouse was wrapped with heat retention drapes on the platform that holds the mouse body securely for imaging CE cells by laser scanning IVCM using the Heidelberg Retina Tomograph III (HRT III) with Rostock Corneal Module (RCM) (Heidelberg Engineering). The laser confocal microscope acquires 2D images that represent a coronal section of the cornea of 400×400 μm (160,000 μm^2) at a selectable corneal depth. Acquired images comprise 384×384 pixels and with a lateral resolution of 1 μm per pixel. Digital images were stored on a computer workstation at 3 frames per second.
# Analysis of CE Cell Density. The CE density of HRT images acquired before UVA and post-UVA at 2 wk and 1 and 2 mo was analyzed by a semiautomated cell counter in the software Heidelberg Eye Explorer, version 1.3.0 (Heidelberg Engineering GmbH) inbuilt in HRT3. The mean cell density was calculated from 3 mice whose HRT images were counted by at least 2 observers. For each image, an area with at least 50 cells was selected. For CE density calculated from the images of 3 mice with ZO-1 immunostaining, cell count was performed manually by 2 blinded observers using a plug-in for ImageJ 1.46r (https://imagescience.org/meijering/software/imagescience; provided in the public domain by Wayne Rasband, NIH). […]
# mouse cornea = assay: UVA-induced FECD mouse model: central corneal thickness (CCT) by OCT; format: in vivo
# Experimental: as §3, §1
# In vivo Imaging. […] CCT was measured using inbuilt software.
# mouse aqueous humor = assay: ROS production assay (H2O2, Amplex Red) in mouse aqueous humor after UVA; format: in vivo; conditions: 1 d post-UVA
# Experimental: as §3, with “All animal experiments were approved by the Institutional Animal Care and Use Committee and adhered to the ARVO Statement for the Use of Animals in Ophthalmic and Vision Research.” left out
# (§4) Human Corneal Endothelial Cell Culture. […] The energy was measured using a laser sensor (model L49 [150A]; Ophir), and the time of UVA exposure was adjusted to deliver the appropriate fluence (10 min 29 s for 250 J/cm^2, 20 min 57 s for 500 J/cm^2, 31 min 26 s for 750 J/cm^2, and 41 min 54 s for 1,000 J/cm^2). […]
# ROS Production Assay. Extracellular H2O2 levels in the mouse aqueous humor (3 μL), collected using a capillary needle from the dilated mouse anterior chamber, were detected using the Amplex Red Assay Kit (Molecular Probes, Life Technologies) according to manufacturer's instructions. Fluorescence was measured with excitation and emission at 550 and 590 nm, respectively, using a microplate reader (Bio-Tek) with Gen5 software at 37° C.
# MCEnCs = assay: TUNEL assay on whole mount mouse CE after UVA; format: in vivo; conditions: females and males; 3 mo post-UVA
# Experimental: as §3
# as §4, with “Culture. Telomerase and SV40 T antigen immortalized normal human CE cell lines HCEnC-21T and HCEnC-SV-67F-16, respectively, were previously generated in our laboratory (26, 62).” for “Culture.”
# MCEnC mtDNA and nDNA = assay: DNA damage analysis using LA-qPCR in MCEnCs after UVA; format: in vivo, mouse; conditions: 1,000 J/cm^2 UVA at 3 mo
# Experimental: as §3
# as §4, with “Culture. Telomerase and SV40 T antigen immortalized normal human CE cell lines HCEnC-21T and HCEnC-SV-67F-16, respectively, were previously generated in our laboratory (26, 62).” for “Culture.”
# as §2
# [2] = system: corneal endothelial (CE) cell; assay: UVA-induced corneal endothelial cell loss in female mice, CYP1B1 inhibitor treatment; format: in vivo, mouse
# Experimental: FIG. 12. […] TMS was injected intraperitoneally (1.5 mg/kg) in female mice 1 h prior to 500 J/cm^2 UVA and 3 times a week thereafter for two weeks. Mice similarly injected with DMSO served as the control (n=5; white bar).
# [3] = system: corneal endothelial cell (CEnC); assay: UVA light-induced CEnC loss in NQO1+/+ and NQO1−/− female mice (mouse model of FECD), HRT imaging; format: in vivo
# Experimental: A mouse model of FECD was generated by knocking out the NQO1 gene. […] NQO1+/+ and NQO1−/− female mice were irradiated with UVA (500 J/cm^2; time: 20 minutes) to initiate CEnC loss. Either TMS (1 mg/kg) or DMSO (vehicle) was intraperitoneally injected three times a week post-UVA irradiation until week 2 (FIG. 13A). Central corneal thickness (CCT) and Corneal endothelium (CE) imaging was performed using anterior segment-optical coherence tomography (OCT) and Heidelberg Retina Tomograph III (HRT III) prior to UVA irradiation and then at day 1, week 1, week 2, and week 4 post-UVA irradiation. The CE density (cells/mm^2) was quantified by a semi-automated cell counter inbuilt in HRT machine. A mouse model of FECD was generated by knocking out the NQO1 gene. […] NQO1+/+ and NQO1−/− female mice were irradiated with UVA (500 J/cm^2; time: 20 minutes) to initiate CEnC loss. Either berberine (10 mg/kg) or Vehicle (90% PBS+5% Tween-80+5% polyethylene glycol) was intraperitoneally injected immediately after and at week 1 post-UVA irradiation (FIG. 14A). Central corneal thickness (CCT) and corneal endothelium (CE) imaging was performed using anterior segment-optical coherence tomography (AS-OCT) and Heidelberg Retina Tomograph III (HRT III) prior to UVA irradiation and then at day 1, week 1, and week 2, post-UVA irradiation. The CE density (cells/mm^2) was quantified by a semi-automated cell counter inbuilt in HRT machine.
smiles,measurement,setting,value
"C[C@]12CC[C@@H]3c4ccc(O)c(O)c4CC[C@H]3[C@@H]1CC[C@@H]2O [4-OHE2, 4-hydroxyestradiol]",DNA lesions in the nuclear encoded β-globin gene,HCEnC-21T cells,0.46 DNA lesions per 10 kb
same,mtDNA lesions,HCEnC-21T cells,0.65 DNA lesions per 10 kb
"CC(=O)N[C@@H](CS)C(=O)O [NAC, N-acetylcysteine]",morphological and molecular changes induced by UVA,"[1]; UVA 1000 J/cm^2, in vivo (FIG. 10)",rescued
same,"increase in MCEnC density vs 1,000 J/cm^2 UVA irradiation only",[1]; females,1.7 fold
same,MCEnC density,"[1]; females, no-NAC 855±115","1,521±313 cells per square millimeter"
same,endothelial cell density,"[1]; male and female, 3 mo after UVA, ZO-1 immunostaining",significantly rescued
same,"increase in MCEnC density vs 1,000 J/cm^2 UVA irradiation only",[1]; males,1.6 fold
same,MCEnC density,"[1]; males, no-NAC 944±136","1,560±136 cells per square millimeter"
same,CCT,"mouse cornea; 1 to 3 mo after 1,000 J/cm^2 UVA",remained close to the untreated baseline
same,"CCT vs 1,000 J/cm^2 treated females","mouse cornea; females, 1, 2, and 3 mo after 1,000 J/cm^2 UVA",significant decrease in CCT
same,"CCT vs 1,000 J/cm^2 treated males","mouse cornea; males, 2 wk and 1 and 3 mo after 1,000 J/cm^2 UVA",significant decrease in CCT
same,ROS formed due to UVA (H2O2 in aqueous humor),mouse aqueous humor,significantly reduced
same,TUNEL-positive cells vs non-NAC-treated UVA irradiated mice,MCEnCs,significantly less TUNEL-positive cells
same,nDNA damage,MCEnC mtDNA and nDNA; both sexes,significantly rescued
same,mtDNA damage,MCEnC mtDNA and nDNA; females,persisted
"COc1cc(/C=C/c2ccc(OC)cc2OC)cc(OC)c1 [TMS, trans-2,3′,4,5′-tetramethoxystilbene]",corneal endothelial cell loss,"[2]; 1 week, 2 weeks and 1 month post 500 J/cm^2, 1.5 mg/kg intraperitoneally 1 h prior and 3 times a week for two weeks, vs DMSO, p<0.05",Rescue of corneal endothelial cell loss
same,endothelial cell degeneration / UVA-induced corneal endothelial cell loss,"[2]; mouse model of FECD, in vivo (FIGS. 11 and 12)",delayed the endothelial cell degeneration; also recorded: Rescue of UVA-induced corneal endothelial cell loss
same,morphology of CEnC vs vehicle,"[3]; NQO1+/+ and NQO1−/− female mice, TMS 1 mg/kg ip three times a week, weeks 2 and 4 post-UVA 500 J/cm^2",less irregular morphology
same,CEnC number vs vehicle,"[3]; NQO1+/+ and NQO1−/− female mice, TMS 1 mg/kg ip, weeks 2 and 4 post-UVA 500 J/cm^2",higher CEnC number; also recorded: reduces CEnC loss
COc1ccc2cc3[n+](cc2c1OC)CCc1cc2c(cc1-3)OCO2 [berberine],morphology of CEnC vs vehicle,"[3]; NQO1+/+ and NQO1−/− female mice, berberine 10 mg/kg ip, week 2 post-UVA 500 J/cm^2",less irregular morphology
same,CEnC number vs vehicle,"[3]; NQO1+/+ females, berberine 10 mg/kg ip, week 2 post-UVA",trend towards higher CEnC number
same,CEnC number vs vehicle,"[3]; NQO1−/− females, berberine 10 mg/kg ip, week 2 post-UVA",significantly higher CEnC number
same,UVA light-induced CEnC loss,"[3]; berberine 10 mg/kg, mouse model of Fuchs Dystrophy (FIG. 14 title)",rescues UVA light-induced CEnC loss
